From patent US20250073680A1, “METHOD OF REGENERATING BIS(IMINOGUANIDINE) CARBON DIOXIDE SORBENTS FROM CARBONATE OR BICARBONATE SALT THEREOF” (UT-Battelle, LLC, priority 2023, published 2025)
Entries after “also recorded” stand apart in the source; their conditions may differ.

Assays:
[1] = Aqueous solubility of regenerated sorbent; format: physicochemical; details: free base
[2] = Stability after steam stripping by NMR and XRD; format: physicochemical; details: 1H-NMR and XRD versus synthesized / conventionally regenerated sample
Protocol: Infrared sensors for CO2 concentration measurements in the inlet and outlet gas streams were used. For gas sample measurements, the exhaust gas passed through a water trap and hydrophobic filter (CM-0118) prior to reaching the sensor to avoid excess water. A total inorganic carbon analyzer containing an acidification module and a CO2 coulometer module was used to determine inorganic carbon content in solid samples. Air at 100 mL/min was used as a carrier gas, and calculations were based on sample weight. A 1 M Na2CO3 solution was used as a standard. Solid samples (40-60 mg) were weighed out into small Teflon cups, and the entire cup was transferred into a 15-mL sample flask. A volume of 5 mL of 2 M HCl acid was dispensed to acidify each sample. Solid samples were analyzed in duplicates. X-ray diffraction (XRD) measurements were conducted using an X-ray diffraction system equipped with a solid-state detector. For the XRD measurements, X-rays were generated at 45 kV/40 mA, and the X-ray beam wavelength was λ=1.5406 A (Cu Kα radiation). Nuclear magnetic resonance (NMR) measurements were performed to quantify solvent degradation after regeneration. The 1D spectra were recorded on a 400 MHz NMR spectrometer equipped with a 5 mm BBI or BBO probe. A residual solvent peak was used as an internal reference (DMSO-d6: 2.50 ppm). […]

[3] = total regeneration energy; cited from earlier work

Compound	aqueous solubility [1]	chemical stability after direct steam regeneration [2]	regeneration energy [3]
CC(/C=N/NC(=N)N)=N\NC(=N)N [MGBIG, methylglyoxal-bis(iminoguanidine)]	completely dissolved in water; also recorded: high aqueous solubility	no chemical degradation occurred	
N=C(N)N/N=C/C=N/NC(=N)N [GBIG-C, GBIG carbonate]			3.4 kJ/g-CO2
N=C(N)NN=CC=NNC(=N)N [GBIG, glyoxal-bis(iminoguanidine)]		no chemical degradation occurred	
CC(/C=N/NC(=N)N)=N\NC(=N)N [MGBIG-C, methylglyoxal-bis(iminoguanidine) (MGBIG) carbonate]			7.0-10.2 kJ/g-CO2
